Experimental data: US20090017003A1, “THIOSULFONATE ANTI-INFLAMMATORY AGENTS” (SULFIDRIS S.R.L., priority 2006, published 2009)

Experiments:
[1] = type: in vivo; conditions: male rats, once daily by gavage for three days, diclofenac 10 mg/kg, compound of example 5 14 mg/kg
Protocol: Thirty male rats (150-200 g) were divided into three groups of 10 animals/group and treated with vehicle, diclofenac (10 mg/kg) and the compound of example 5 (14 mg/kg) for three days once daily by gavage. The vehicle consisted in 1 mL of 0.5% carboxymethylcellulose (CMC). At the fifth day, survival animals were sacrificed, by an overdose of ether, and autopsied to detect any pathological changes, particularly in the gastrointestinal tract. Prostaglandin E2 was evaluated in the liver homogenate by standard enzyme immunoassay procedure as described by Warner T D et al. (J.P.E.T. 2004, 310, 642-7).

superoxide formation = assay: Superoxide formation by cultured pulmonary endothelial cells; type: cell-based, porcine
Source text: (§1) Effects of the compound prepared in example 4 on superoxide formation, gp91^phox expression by porcine cultured pulmonary endothelial cells and intact cavernosal tissue were studied according to Muzzaffar S. et al. (Br. J. Pharmacol. 2005 September; 146(1):109-17).

gp91^phox = assay: gp91phox expression by cultured pulmonary endothelial cells; type: cell-based, porcine; conditions: 16 hr incubation of pig pulmonary artery cells with TNFα
Source text: as §1

DU-145 [2] = assay: Growth and adhesion to endothelial cells of DU-145 prostate tumour cells in vitro; type: cell-based
Protocol: (§2) The compound described in example 6 has been tested in vitro on 2 prostate tumour cells (DU-145 and PC-3). […] The activity reported in the literature for the parent compound (valproic acid) on the same tumour cells is achieved at much higher concentrations (1 mM). (Engl. T et al. Life Sciences, 2005).

PC-3 [3] = assay: Growth and adhesion to endothelial cells of PC-3 prostate tumour cells in vitro; type: cell-based
Protocol: as §2

DU-145 [4] = conditions: DU-145 prostate tumour cells; Engl T. et al., Life Sciences 2005; cited from earlier work
PC-3 [5] = conditions: PC-3 prostate tumour cells; Engl T. et al., Life Sciences 2005; cited from earlier work

O=C(O)Cc1ccccc1Nc1c(Cl)cccc1Cl [Diclofenac, diclofenac, reference compound]
% deaths ([1]; 10 animals/group): 40%

CCCc1nn(C)c2c(=O)[nH]c(-c3cc(S(=O)(=O)N4CCN(CC(=O)OCCSS(C)(=O)=O)CC4)ccc3OCC)nc12 [Example 4, {4-[4-ethoxy-3-(1-methyl-7-oxo-3-propyl-6,7-dihydro-1H-pyrazolo[4,3-d]pyrimidin-5-yl)-benzenesulfonyl]-piperazin-1-yl}-acetic acid 2-methanesulfonylsulfanyl-ethyl ester]
inhibition of superoxide formation (superoxide formation; 16 hr incubation of pig pulmonary artery cells with TNFα): potent inhibitor
inhibition of superoxide formation (superoxide formation; 16 hr incubation of pig pulmonary artery cells with thromboxane A2 analogue U46619): potent inhibitor
concentration reducing superoxide formation compared with sildenafil citrate (superoxide formation; response to inflammatory mediators): lower concentrations than sildenafil citrate
inhibition of gp91phox expression (gp91^phox): inhibited

CS(=O)(=O)SCCOC(=O)Cc1cccc(Nc2c(Cl)cccc2Cl)c1 [Example 5, [3-(2,6-dichloro-phenylamino)-phenyl]-acetic acid 2-methanesulfonylsulfanyl-ethyl ester]
% gastrointestinal ulcer ([1]; autopsy at fifth day): 10%

CCCC(CCC)C(=O)OCCSS(C)(=O)=O [Example 6, 2-propyl-pentanoic acid 2-methanesulfonylsulfanyl-ethyl ester]
concentration range inhibiting adhesion to endothelial cells (DU-145 [2]): 5 to 30 µM
concentration range inhibiting growth (DU-145 [2]): 5 to 30 µM
concentration range inhibiting adhesion to endothelial cells (PC-3 [3]): 5 to 30 µM
concentration range inhibiting growth (PC-3 [3]): 5 to 30 µM

CCCC(CCC)C(=O)O [valproic acid]
concentration at which activity is achieved (literature) (DU-145 [4]): 1 mM
concentration at which activity is achieved (literature) (PC-3 [5]): 1 mM
